# Patent publication US20260042764A1, “COMPOSITIONS AND METHODS FOR INHIBITION OF KRAS” (TheRas, Inc., priority 2022, published 2026)
# What was measured:
# SW620 cells (KRAS G12V) = experiment: Cell-based pERK HTRF assay in SW620 cell (Biological Example 4)
# In short: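 SW620 (KRAS G12V) cells seeded at 3×10^4/well in RPMI, 10% FBS, then treated next day for 4 h with a 9-point half-log series from 1 μM top (0.25% DMSO). Lysates analyzed for pERK by HTRF (Eu cryptate/d2 antibodies, 4–24 h at room temperature), excitation 320 nm, emission 615 nm.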
# [1] = molecular target: T1, Avi-KRAS G12D (2-169) GTP/RAF1 RBD-3xFLAG (51-131) (Homo sapiens, UniProt P01116, G12D); experiment: Raf1-KRAS G12D-GTP disruption HTRF assay (Biological Example 3); assay type: binding; conditions: KRAS G12D, GTP-loaded
# T1 construct: Avi-KRAS G12D (2-169)
# In short: (§1)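 Compounds were titrated 10-point, 3-fold from 30 μM against preformed KRAS-GTP:RAF1 RBD (51-131) complexes at 50 nM, using KRAS 2-169 as WT, G12C, G12D or G12V. After 1 h at room temperature in Tris pH 7.5 buffer with MgCl2 and 10% DMSO, time-resolved fluorescence was read. Results are percent activity versus DMSO.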
# [2] = molecular target: T2, Avi-KRAS WT (1-169) GppNHp/RAF1 RBD-3xFLAG (52-151) (Homo sapiens, UniProt P01116); experiment: Raf1-KRAS WT-GppNHP disruption HTRF assay (Biological Example 1); assay type: binding
# T2 construct: Avi-KRAS WT (1-169)
# In short: (§2)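 Compound disruption of KRAS-GppNHp/RAF1 RBD binding read by HTRF after two sequential 1 h room-temperature incubations (protein mix, then detection reagents), shaken at 700 rpm. Buffer Tris pH 7.5 with MgCl2, BSA, Tween and 10% DMSO; results given as percent activity relative to DMSO (100%).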
# [3] = molecular target: T3, Avi-KRAS G12R (1-169) GppNHp/RAF1 RBD-3xFLAG (52-151) (Homo sapiens, UniProt P01116, G12R); experiment: Raf1-KRAS G12R-GppNHP disruption HTRF assay (Biological Example 1); assay type: binding
# T3 construct: Avi-KRAS G12R (1-169)
# In short: as §2
# [4] = molecular target: T4, Avi-KRAS G12V (2-169) GTP/RAF1 RBD-3xFLAG (51-131) (Homo sapiens, UniProt P01116, G12V); experiment: Raf1-KRAS G12V-GTP disruption HTRF assay (Biological Example 3); assay type: binding; conditions: KRAS G12V, GTP-loaded
# T4 construct: Avi-KRAS G12V (2-169)
# In short: as §1
# [5] = Homo sapiens, SW-620, SW620 (KRAS G12V) cells
# [6] = Homo sapiens, SW-620, SW620 (KRAS G12V) cells, pERK HTRF, class symbols
# [7] = KRAS WT, GppNHp-loaded, class symbols
# [8] = KRAS G12R, GppNHp-loaded, class symbols
# [9] = Homo sapiens, SW-620, SW620 (KRAS G12V) cells, pERK HTRF
# [10] = KRAS WT, GppNHp-loaded, Table 11
# [11] = KRAS G12R, GppNHp-loaded, Table 11
# T1 sequence (P01116 2-169 isoform P01116-2 G12D): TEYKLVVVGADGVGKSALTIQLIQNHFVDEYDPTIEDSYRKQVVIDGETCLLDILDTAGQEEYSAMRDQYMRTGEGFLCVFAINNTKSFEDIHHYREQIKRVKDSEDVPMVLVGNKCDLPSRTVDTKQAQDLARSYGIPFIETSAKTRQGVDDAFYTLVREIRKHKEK
# T2 sequence (P01116 1-169 isoform P01116-2): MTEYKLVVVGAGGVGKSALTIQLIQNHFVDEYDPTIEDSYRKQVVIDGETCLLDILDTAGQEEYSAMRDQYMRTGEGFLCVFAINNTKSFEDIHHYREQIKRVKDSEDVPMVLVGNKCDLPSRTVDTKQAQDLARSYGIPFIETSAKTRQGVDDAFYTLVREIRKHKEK
# T3 sequence (P01116 1-169 isoform P01116-2 G12R): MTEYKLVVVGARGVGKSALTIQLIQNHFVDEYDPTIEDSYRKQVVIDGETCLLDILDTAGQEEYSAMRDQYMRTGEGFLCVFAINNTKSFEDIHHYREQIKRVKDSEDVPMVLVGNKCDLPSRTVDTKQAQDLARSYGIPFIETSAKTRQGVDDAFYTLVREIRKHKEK
# T4 sequence (P01116 2-169 isoform P01116-2 G12V): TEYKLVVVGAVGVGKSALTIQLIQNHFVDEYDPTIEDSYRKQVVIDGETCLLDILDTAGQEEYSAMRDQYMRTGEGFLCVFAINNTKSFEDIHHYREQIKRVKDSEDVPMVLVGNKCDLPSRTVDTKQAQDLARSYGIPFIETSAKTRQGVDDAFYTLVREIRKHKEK
Compound,IC50 (SW620 cells (KRAS G12V); [5]),IC50 (SW620 cells (KRAS G12V); [6]),IC50 [1],"IC50 [2, 7]","IC50 [3, 8]",IC50 [4],IC50 (SW620 cells (KRAS G12V); [9]),"IC50 [2, 10]","IC50 [3, 11]",IC50 ([2]; KRAS WT-GppNHp/RAF1 RBD HTRF),IC50 ([3]; KRAS G12R-GppNHp/RAF1 RBD HTRF),"IC50 (SW620 cells (KRAS G12V); SW620 (KRAS G12V) cells, pERK HTRF, class symbols)"
N#Cc1c(N)sc2c(F)ccc(-c3c(C(F)(F)F)cc4c(N5CCCOCC5)nc(OC[C@@]56CCCN5C[C@H](F)C6)nc4c3F)c12 [Compound 232],< 100 nM,–,100 to 1000 nM,–,–,100 to 1000 nM,< 100 nM,100 to 1000 nM,100 to 1000 nM,–,–,–
CN(C)C(=O)c1cc2n(n1)CCN(c1nc(OC[C@@]34CCCN3C[C@H](F)C4)nc3c(F)c(-c4ccc(F)c5sc(N)c(C#N)c45)c(C(F)(F)F)cc13)C2 [Compound 355],< 100 nM,–,100 to 1000 nM,–,–,100 to 1000 nM,< 100 nM,–,–,100 to 1000 nM,100 to 1000 nM,–
C[C@@H]1[C@H](N(C)c2nc(OC[C@@]34CCCN3C[C@H](F)C4)nc3c(F)c(-c4ccc(F)c5sc(N)c(C#N)c45)c(C(F)(F)F)cc23)CCN1C(=O)C1CC1 [Compound 258],–,–,–,–,–,–,< 100 nM,< 100 nM,< 100 nM,–,–,–
CCC(=O)N1CC[C@@H](N(C)c2nc(OC[C@@]34CCCN3C[C@H](F)C4)nc3c(F)c(-c4ccc(F)c5sc(N)c(C#N)c45)c(C(F)(F)F)cc23)[C@H]1C [Compound 260],–,–,–,–,–,–,< 100 nM,< 100 nM,< 100 nM,–,–,–
CCN(c1nc(OC[C@@]23CCCN2C[C@H](F)C3)nc2c(F)c(-c3ccc(F)c4sc(N)c(C#N)c34)c(Cl)cc12)[C@@H]1CCN(C(C)=O)[C@@H]1C [Compound 323],–,–,–,–,–,–,< 100 nM,–,–,100 to 1000 nM,100 to 1000 nM,–
N#Cc1c(N)sc2c(F)ccc(-c3c(C(F)(F)F)cc4c(N5CC6CC(C5)O6)nc(OC[C@@]56CCCN5C[C@H](F)C6)nc4c3F)c12 [Compound 145],< 100 nM,–,100 to 1000 nM,–,–,1000 to 10000 nM,< 100 nM,100 to 1000 nM,100 to 1000 nM,–,–,–
CCN(c1nc(OC[C@@]23CCCN2C[C@H](F)C3)nc2c(F)c(-c3ccc(F)c4sc(N)c(C#N)c34)c(C(F)(F)F)cc12)[C@@H]1CCN(C(=O)C(C)C)C1 [Compound 328],< 100 nM,–,100 to 1000 nM,–,–,1000 to 10000 nM,< 100 nM,–,–,100 to 1000 nM,100 to 1000 nM,–
N#Cc1c(N)sc2c(F)ccc(-c3c(C(F)(F)F)cc4c(N5CC6CC5CO6)nc(OC[C@@]56CCCN5C[C@H](F)C6)nc4c3F)c12 (stereo partly drawn) [Compound 147],–,–,–,–,–,–,< 100 nM,100 to 1000 nM,100 to 1000 nM,–,–,–
N#Cc1c(N)sc2c(F)ccc(-c3c(C(F)(F)F)cc4c(N5CCC[C@@H](O)C5)nc(OC[C@@]56CCCN5C[C@H](F)C6)nc4c3F)c12 [Compound 234],–,–,–,–,–,–,< 100 nM,100 to 1000 nM,100 to 1000 nM,–,–,–
CCN(c1nc(OC[C@@]23CCCN2C[C@H](F)C3)nc2c(F)c(-c3ccc(F)c4sc(N)c(C#N)c34)c(Cl)cc12)[C@@H]1CCN(C(=O)C2CC2)[C@@H]1C [Compound 337],–,–,–,–,–,–,< 100 nM,–,–,100 to 1000 nM,100 to 1000 nM,–
CCN(c1nc(OC[C@@]23CCCN2C[C@H](F)C3)nc2c(F)c(-c3ccc(F)c4sc(N)c(C#N)c34)c(C(F)(F)F)cc12)[C@@H]1CCN(C(=O)C2CC2)C1 [Compound 329],< 100 nM,–,100 to 1000 nM,–,–,100 to 1000 nM,< 100 nM,–,–,100 to 1000 nM,100 to 1000 nM,–
CN(Cc1cccnc1N)c1nc(OC[C@@]23CCCN2C[C@H](F)C3)nc2c(F)c(-c3ccc(F)c4sc(N)c(C#N)c34)c(C(F)(F)F)cc12 [Compound 390],–,–,–,–,–,–,< 100 nM,–,–,100 to 1000 nM,100 to 1000 nM,–
N#Cc1cnn2c1CN(c1nc(OC[C@@]34CCCN3C[C@H](F)C4)nc3c(F)c(-c4ccc(F)c5sc(N)c(C#N)c45)c(C(F)(F)F)cc13)CC2 [Compound 392],–,–,–,–,–,–,< 100 nM,–,–,100 to 1000 nM,100 to 1000 nM,–

# The remaining lines, values ahead:
IC50 (SW620 cells (KRAS G12V); [5]),IC50 (SW620 cells (KRAS G12V); [6]),IC50 [1],"IC50 [2, 7]","IC50 [3, 8]",IC50 [4],IC50 (SW620 cells (KRAS G12V); [9]),"IC50 [2, 10]","IC50 [3, 11]",IC50 ([2]; KRAS WT-GppNHp/RAF1 RBD HTRF),IC50 ([3]; KRAS G12R-GppNHp/RAF1 RBD HTRF),"IC50 (SW620 cells (KRAS G12V); SW620 (KRAS G12V) cells, pERK HTRF, class symbols)",Compound
< 100 nM,< 100 nM,≤ 100 nM,< 100 nM,< 100 nM,≤ 100 nM,–,–,–,–,–,–,"CCN(c1nc(OC[C@@]23CCCN2C[C@H](F)C3)nc2c(F)c(-c3ccc(F)c4sc(N)c(C#N)c34)c(C(F)(F)F)cc12)[C@H]1CCN(C(=O)CC(F)F)C1 (atropisomer, axis not shown) [Compound 611]"
< 100 nM,< 100 nM,100 to 1000 nM,100 to 1000 nM,100 to 1000 nM,100 to 1000 nM,–,–,–,–,–,–,Cc1c(C(=O)N2CCCC2)nn2c1CN(c1nc(OCC34CCCN3CC(F)C4)nc3c(F)c(-c4ccc(F)c5sc(N)c(C#N)c45)c(C(F)(F)F)cc13)CC2 (stereo not drawn) [Compound 744]
< 100 nM,< 100 nM,100 to 1000 nM,< 100 nM,< 100 nM,100 to 1000 nM,–,–,–,–,–,–,"CCN(c1nc(OC[C@@]23CCCN2C[C@H](F)C3)nc2c(F)c(-c3ccc(F)c4sc(N)c(C#N)c34)c(C(F)(F)F)cc12)[C@H]1C[C@@H]2CN(C)C(=O)N2C1 (atropisomer, axis not shown) [Compound 605]"
< 100 nM,< 100 nM,≤ 100 nM,< 100 nM,< 100 nM,≤ 100 nM,–,–,–,–,–,–,"CCN(c1nc(OC[C@@]23CCCN2C[C@H](F)C3)nc2c(F)c(-c3ccc(F)c4sc(N)c(C#N)c34)c(C(F)(F)F)cc12)[C@H]1CCN(C(=O)C2CN(C(C)=O)C2)C1 (atropisomer, axis not shown) [Compound 638]"
< 100 nM,< 100 nM,≤ 100 nM,< 100 nM,< 100 nM,≤ 100 nM,–,–,–,–,–,–,"CCN(c1nc(OC[C@@]23CCCN2C[C@H](F)C3)nc2c(F)c(-c3ccc(F)c4sc(N)c(C#N)c34)c(C(F)(F)F)cc12)[C@H]1CC(=O)N(C2CC2)C1 (atropisomer, axis not shown) [Compound 615]"
< 100 nM,< 100 nM,≤ 100 nM,< 100 nM,< 100 nM,≤ 100 nM,–,–,–,–,–,–,"CCN(c1nc(OC[C@@]23CCCN2C[C@H](F)C3)nc2c(F)c(-c3ccc(F)c4sc(N)c(C#N)c34)c(C(F)(F)F)cc12)[C@H]1CCN(C(=O)N2CC(OC)C2)C1 (atropisomer, axis not shown) [Compound 607]"
< 100 nM,< 100 nM,≤ 100 nM,< 100 nM,< 100 nM,≤ 100 nM,–,–,–,–,–,–,"CCN(c1nc(OC[C@@]23CCCN2C[C@H](F)C3)nc2c(F)c(-c3ccc(F)c4sc(N)c(C#N)c34)c(C(F)(F)F)cc12)[C@H]1CCN(C(=O)N2CC(F)C2)C1 (atropisomer, axis not shown) [Compound 606]"
–,< 100 nM,–,100 to 1000 nM,< 100 nM,–,–,–,–,–,–,–,"CCN(c1nc(OC[C@@]23CCCN2C[C@H](F)C3)nc2c(F)c(-c3ccc(F)c4sc(N)c(C#N)c34)c(C(F)(F)F)cc12)[C@H]1C[C@H](C)N(C(=O)[C@@H]2CC2(F)F)C1 (atropisomer, axis not shown) [Compound 751]"
–,–,–,< 100 nM,< 100 nM,–,–,–,–,–,–,< 100 nM,CCN(c1nc(OCC23CCCN2CC(F)C3)nc2c(F)c(-c3ccc(F)c4sc(N)c(C#N)c34)c(C(F)(F)F)cc12)C1CC(C)N(C(=O)N2CC(F)C2)C1 (stereo not drawn) [Compound 759]
–,–,–,–,–,–,< 100 nM,–,–,100 to 1000 nM,100 to 1000 nM,–,C[C@@H]1[C@H](N(C)c2nc(OC[C@@]34CCCN3C[C@H](F)C4)nc3c(F)c(-c4ccc(F)c5sc(N)c(C#N)c45)c(C(F)(F)F)cc23)CC(=O)N1C [Compound 440]
–,–,–,–,–,–,< 100 nM,–,–,< 100 nM,< 100 nM,–,CCN(c1nc(OC[C@@]23CCCN2C[C@H](F)C3)nc2c(F)c(-c3ccc(F)c4sc(N)c(C#N)c34)c(C(F)(F)F)cc12)[C@H]1C[C@H](C)N(C(C)=O)C1 [Compound 463]
–,–,–,–,–,–,< 100 nM,–,–,100 to 1000 nM,100 to 1000 nM,–,CCC(=O)N1C[C@@H](N(CC)c2nc(OC[C@@]34CCCN3C[C@H](F)C4)nc3c(F)c(-c4ccc(F)c5sc(N)c(C#N)c45)c(C(F)(F)F)cc23)C[C@H]1C [Compound 442]
–,< 100 nM,–,< 100 nM,< 100 nM,–,–,–,–,–,–,–,"CCN(c1nc(OC[C@@]23CCCN2C[C@H](F)C3)nc2c(F)c(-c3ccc(F)c4sc(N)c(C#N)c34)c(C(F)(F)F)cc12)[C@H]1CCN(C(=O)c2ncco2)C1 (atropisomer, axis not shown) [Compound 584]"
–,–,–,–,–,–,< 100 nM,–,–,100 to 1000 nM,100 to 1000 nM,–,CC(=O)N1CC[C@@H](N(C)c2nc(OC[C@@]34CCCN3C[C@H](F)C4)nc3c(F)c(-c4ccc(F)c5sc(N)c(C#N)c45)c(Cl)cc23)[C@H]1C [Compound 398]
